From US20260001928A1 (CORTERIA PHARMACEUTICALS, priority 2022, published 2026)
*1 amine or outer side, *2 acyl side, *3 side chain or, on linkers, in order; H or OH if unused. Where a SMILES comes first, the peptide text is derived from it. Side-chain parts run from the residue outwards. [ ]: non-standard residue; d: D form. The star is where a group is joined. γGlu = O=C(O)[C@H](CCC(=O)[*:2])N[*:1]; C14 diacid = O=C(O)CCCCCCCCCCCCC(=O)*; Api = NC1(C(=O)O)CCNCC1; AEEA = NCCOCCOCC(=O)O; Aib = CC(C)(N)C(=O)O

How the values were obtained:
[1] = biological target: T1, CFR1R receptor (Homo sapiens, UniProt P34998); test: Activity at anti-target CFR1R receptor, cAMP assay in CRF1R-overexpression CHO-K1 cells; format: cell-based; conditions: 100% = Sauvagine at 100 nM; for EC50: cAMP
T1 construct: host or cells: CHO-K1 (clone 2)
T1 sequence (P34998 24-415): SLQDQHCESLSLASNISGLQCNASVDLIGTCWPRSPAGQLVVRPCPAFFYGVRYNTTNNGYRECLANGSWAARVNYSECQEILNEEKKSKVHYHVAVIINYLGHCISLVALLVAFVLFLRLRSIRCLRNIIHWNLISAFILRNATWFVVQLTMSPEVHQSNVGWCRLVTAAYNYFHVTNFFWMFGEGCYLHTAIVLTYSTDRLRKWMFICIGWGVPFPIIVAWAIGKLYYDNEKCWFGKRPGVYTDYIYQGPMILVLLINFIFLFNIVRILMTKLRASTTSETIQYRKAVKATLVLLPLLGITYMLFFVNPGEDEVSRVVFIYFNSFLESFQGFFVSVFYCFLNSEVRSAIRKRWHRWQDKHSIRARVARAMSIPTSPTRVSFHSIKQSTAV
Procedure, shortened: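 Signal is normalised to 100 nM Sauvagine, taken as 100% activation, in clone 2 cells plated at a final 4000 cells/well from frozen stocks.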

[2] = biological target: T2, human CRF2a receptor (Homo sapiens, UniProt Q13324); test: Activity at human CRF2a receptor, cAMP functional assay in TeloHEAC cells; format: cell-based; conditions: TeloHEAC cells stably expressing human CRF2a receptor, relative to urocortin 2 (100 nM = 100%)
T2 construct: expressed in transfected cells; host or cells: TeloHEAC cells
T2 sequence (Q13324 1-411): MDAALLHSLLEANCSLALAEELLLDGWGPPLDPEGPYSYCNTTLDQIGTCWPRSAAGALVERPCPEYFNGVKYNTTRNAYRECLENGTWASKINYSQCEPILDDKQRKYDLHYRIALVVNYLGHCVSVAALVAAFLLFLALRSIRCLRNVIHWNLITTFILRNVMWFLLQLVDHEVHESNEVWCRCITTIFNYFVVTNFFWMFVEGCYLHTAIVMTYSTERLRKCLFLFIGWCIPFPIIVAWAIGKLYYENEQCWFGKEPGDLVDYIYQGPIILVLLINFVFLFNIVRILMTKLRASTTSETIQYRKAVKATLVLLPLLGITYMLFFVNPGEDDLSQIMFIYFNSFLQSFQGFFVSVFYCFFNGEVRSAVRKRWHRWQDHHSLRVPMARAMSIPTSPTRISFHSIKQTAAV
Procedure, shortened: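 TeloHEAC cells stably expressing human CRF2a (10000 cells/well) were treated with 16-point 1:2 compound dilutions in HBSS/20 mM HEPES with IBMX for 30 min at 37° C. cAMP was read by HTRF (665/620 nm ratio). EC50 was the concentration giving 50% activation, with 100 nM urocortin 2 set as 100%.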

| Emax (% I) [1] | EC50 [1] | EC50 [2] | Compound |
| --- | --- | --- | --- |
| 0 % I | > 0.25 µM | 0.00579 µM | CC[C@H](C)[C@H](NC(C)=O)C(=O)N[C@H](C(=O)N[C@@H](CC(C)C)C(=O)N[C@@H](CO)C(=O)N[C@@H](CC(C)C)C(=O)N[C@@H](CC(=O)O)C(=O)N[C@@H](C(=O)N1CCC[C@H]1C(=O)N[C@H](C(=O)N[C@@H](CCCCN)C(=O)N[C@@H](CC(C)C)C(=O)N[C@@H](CCCCNC(=O)COCCOCCNC(=O)COCCOCCNC(=O)CC[C@H](NC(=O)CCCCCCCCCCCCC(=O)O)C(=O)O)C(=O)N[C@@H](CCCCN)C(=O)N[C@H](C(=O)N[C@@H](CC(C)C)C(=O)N[C@@H](CC(C)C)C(=O)N[C@@H](CCC(=O)O)C(=O)N[C@@H](CCC(N)=O)C(=O)N[C@@H](CCC(=O)O)C(=O)N[C@@H](CCCCN)C(=O)N[C@@H](CCC(N)=O)C(=O)N[C@@H](CCCCN)C(=O)N[C@@H](CCCCN)C(=O)N[C@@H](CCC(N)=O)C(=O)N[C@@H](CCCNC(=N)N)C(=O)N[C@@H](CCC(=O)O)C(=O)N[C@@H](CCC(N)=O)C(=O)N[C@@H](C)C(=O)N[C@@H](CCC(=O)O)C(=O)N[C@H](C(=O)N[C@@H](CC(N)=O)C(=O)NC(C)(C)C(=O)N[C@@H](CCC(N)=O)C(=O)N[C@H](C(=O)N[C@@H](CC(C)C)C(=O)N[C@@H](C)C(=O)N[C@@H](CCC(N)=O)C(=O)N[C@H](C(N)=O)C(C)C)[C@@H](C)CC)[C@@H](C)O)[C@@H](C)CC)[C@@H](C)CC)C(C)C)C(C)C [compound 171] (Ac-IVLSLD[dV]PIKLK([AEEA-AEEA-γGlu-C14 diacid])KILLEQEKQKKQREQAETN[Aib]QILAQV-NH2) |
| −6 % I | > 0.25 µM | 0.0161 µM | CC[C@H](C)[C@H](NC(C)=O)C(=O)N[C@H](C(=O)N[C@@H](CC(C)C)C(=O)N[C@@H](CO)C(=O)N[C@@H](CC(C)C)C(=O)N[C@@H](CC(=O)O)C(=O)N[C@@H](C(=O)N1CCC[C@H]1C(=O)N[C@H](C(=O)N[C@@H](CCCCN)C(=O)N[C@@H](CC(C)C)C(=O)N[C@@H](CCCCNC(=O)COCCOCCNC(=O)COCCOCCNC(=O)CC[C@H](NC(=O)CCCCCCCCCCCCC(=O)O)C(=O)O)C(=O)N[C@@H](CCCCN)C(=O)N[C@H](C(=O)N[C@@H](CC(C)C)C(=O)N[C@@H](CC(C)C)C(=O)N[C@@H](CCC(=O)O)C(=O)N[C@@H](CCC(N)=O)C(=O)N[C@@H](CCC(=O)O)C(=O)N[C@@H](CCCCN)C(=O)N[C@@H](CCC(N)=O)C(=O)N[C@@H](CCCCN)C(=O)N[C@@H](CCCCN)C(=O)N[C@@H](CCC(N)=O)C(=O)N[C@@H](CCCNC(=N)N)C(=O)N[C@@H](CCC(=O)O)C(=O)N[C@@H](CCC(N)=O)C(=O)N[C@@H](C)C(=O)N[C@@H](CCC(=O)O)C(=O)N[C@H](C(=O)N[C@@H](CC(N)=O)C(=O)NC1(C(=O)N[C@@H](CCC(N)=O)C(=O)N[C@H](C(=O)N[C@@H](CC(C)C)C(=O)N[C@@H](C)C(=O)N[C@@H](CCC(N)=O)C(=O)N[C@H](C(N)=O)C(C)C)[C@@H](C)CC)CCNCC1)[C@@H](C)O)[C@@H](C)CC)[C@@H](C)CC)C(C)C)C(C)C [compound 172] (Ac-IVLSLD[dV]PIKLK([AEEA-AEEA-γGlu-C14 diacid])KILLEQEKQKKQREQAETN[Api]QILAQV-NH2) |
| −1 % I | > 0.25 µM | 0.0281 µM | CC[C@H](C)[C@H](NC(C)=O)C(=O)N[C@H](C(=O)N[C@@H](CC(C)C)C(=O)N[C@@H](CO)C(=O)N[C@@H](CC(C)C)C(=O)N[C@@H](CC(=O)O)C(=O)N[C@@H](C(=O)N1CCC[C@H]1C(=O)N[C@H](C(=O)N[C@@H](CCCCN)C(=O)N[C@@H](CC(C)C)C(=O)N[C@@H](CCCCNC(=O)COCCOCCNC(=O)COCCOCCNC(=O)CC[C@H](NC(=O)CCCCCCCCCCCCC(=O)O)C(=O)O)C(=O)N[C@@H](CCCCN)C(=O)N[C@H](C(=O)N[C@@H](CC(C)C)C(=O)N[C@@H](CC(C)C)C(=O)N[C@@H](CCC(=O)O)C(=O)N[C@@H](CCC(N)=O)C(=O)N[C@@H](CCC(=O)O)C(=O)N[C@@H](CCCCN)C(=O)N[C@@H](CCC(N)=O)C(=O)N[C@@H](CCCCN)C(=O)NC(C)(C)C(=O)N[C@@H](CCC(N)=O)C(=O)N[C@@H](CCCNC(=N)N)C(=O)N[C@@H](CCC(=O)O)C(=O)N[C@@H](CCC(N)=O)C(=O)N[C@@H](C)C(=O)N[C@@H](CCC(=O)O)C(=O)N[C@H](C(=O)N[C@@H](CC(N)=O)C(=O)NC1(C(=O)N[C@@H](CCC(N)=O)C(=O)N[C@H](C(=O)N[C@@H](CC(C)C)C(=O)N[C@@H](C)C(=O)N[C@@H](CCC(N)=O)C(=O)N[C@H](C(N)=O)C(C)C)[C@@H](C)CC)CCNCC1)[C@@H](C)O)[C@@H](C)CC)[C@@H](C)CC)C(C)C)C(C)C [compound 173] (Ac-IVLSLD[dV]PIKLK([AEEA-AEEA-γGlu-C14 diacid])KILLEQEKQK[Aib]QREQAETN[Api]QILAQV-NH2) |
| 5 % I | > 0.25 µM | 0.0189 µM | CC[C@H](C)[C@H](NC(C)=O)C(=O)N[C@H](C(=O)N[C@@H](CC(C)C)C(=O)N[C@@H](CO)C(=O)N[C@@H](CC(C)C)C(=O)N[C@@H](CC(=O)O)C(=O)N[C@@H](C(=O)N1CCC[C@H]1C(=O)N[C@H](C(=O)N[C@@H](CCCCN)C(=O)N[C@@H](CC(C)C)C(=O)N[C@@H](CCCCNC(=O)COCCOCCNC(=O)COCCOCCNC(=O)CC[C@H](NC(=O)CC[C@H](NC(=O)CCCCCCCCCCCCC(=O)O)C(=O)O)C(=O)O)C(=O)N[C@@H](CCCCN)C(=O)N[C@H](C(=O)N[C@@H](CC(C)C)C(=O)N[C@@H](CC(C)C)C(=O)N[C@@H](CCC(=O)O)C(=O)N[C@@H](CCC(N)=O)C(=O)N[C@@H](CCC(=O)O)C(=O)N[C@@H](CCCCN)C(=O)N[C@@H](CCC(N)=O)C(=O)N[C@@H](CCCCN)C(=O)N[C@@H](CCCCN)C(=O)N[C@@H](CCC(N)=O)C(=O)N[C@@H](CCCNC(=N)N)C(=O)N[C@@H](CCC(=O)O)C(=O)N[C@@H](CCC(N)=O)C(=O)N[C@@H](C)C(=O)N[C@@H](CCC(=O)O)C(=O)N[C@H](C(=O)N[C@@H](CC(N)=O)C(=O)NC1(C(=O)N[C@@H](CCC(N)=O)C(=O)N[C@H](C(=O)N[C@@H](CC(C)C)C(=O)N[C@@H](C)C(=O)N[C@@H](CCC(N)=O)C(=O)N[C@H](C(N)=O)C(C)C)[C@@H](C)CC)CCNCC1)[C@@H](C)O)[C@@H](C)CC)[C@@H](C)CC)C(C)C)C(C)C [compound 175] (Ac-IVLSLD[dV]PIKLK([AEEA-AEEA-γGlu-γGlu-C14 diacid])KILLEQEKQKKQREQAETN[Api]QILAQV-NH2) |
